Reference: patent publication US20220193126A1, “METHODS OF TREATING IMBALANCE OF PLASMA LIPIDS LEVEL AND FATTY LIVER WITH M2C MACROPHAGES” (National Pingtung University of Science and Technology, priority 2020, published 2022)

Columns and labels:
[1] = test system: bone marrow derived macrophages (BMDM); test: Induction of M2C macrophage polarization by baicalin (morphology, microscope images); assay type: cell-based, mice (C57BL/6J); conditions: 50 μM Baicalin for 24 hours, vs placebo-treated group (M-CSF) spindle shape
Experimental: The bone marrow was flushed out from the femurs of mice (C57BL/6J, 8-week-old to 20-week-old, from National Laboratory Animal Center in Taipei, Taiwan) with phosphate-buffered saline (PBS) containing BSA 0.5%. The peripheral blood or bone marrow flushing fluid were layered with Ficoll-Hypaque (GE Healthcare, Uppsala, Sweden) and centrifuged at 400×g for 40 minutes at 18° C. to isolate the mononuclear cell of peripheral blood and bone marrow. The interphase layer containing mononuclear cell was washed with PBS and centrifuged for 10 minutes at 100×g, 18° C. twice. Plate mononuclear cells in dish culture with RPM 1640 supplemented with 10% FBS (fetal bovine serum) and 50 ng/ml recombinant mouse M-CSF (PeproTech, British) at 37° C. and 5% CO2 for 7 days to induce the mononuclear cells to differentiate into macrophage. On the next day of the 7th day of M-CSF treatment, 5×10^5 cells of bone marrow derived macrophages (BMDM) cells were plated in RPMI 1640 (10% FBS) and incubated overnight. After overnight incubation, the BMDM cells were incubated in RPMI 1640 (10% FBS) supplemented with 50 μM Baicalin for 24 hours to induce the BMDM cells to polarize into […] macrophage.

[2] = test system: MERTK; test: Flow cytometry confirmation of MERTK expression on M2C macrophages; assay type: cell-based, mouse; conditions: baicalin-treated vs placebo-treated macrophages
Experimental: The bone marrow was flushed out from the femurs of mice (C57BL/6J, 8-week-old to 20-week-old, from National Laboratory Animal Center in Taipei, Taiwan) with phosphate-buffered saline (PBS) containing BSA 0.5%. The peripheral blood or bone marrow flushing fluid were layered with Ficoll-Hypaque (GE Healthcare, Uppsala, Sweden) and centrifuged at 400×g for 40 minutes at 18° C. to isolate the mononuclear cell of peripheral blood and bone marrow. The interphase layer containing mononuclear cell was washed with PBS and centrifuged for 10 minutes at 100×g, 18° C. twice. Plate mononuclear cells in dish culture with RPM 1640 supplemented with 10% FBS (fetal bovine serum) and 50 ng/ml recombinant mouse M-CSF (PeproTech, British) at 37° C. and 5% CO2 for 7 days to induce the mononuclear cells to differentiate into macrophage. On the next day of the 7th day of M-CSF treatment, 5×10^5 cells of bone marrow derived macrophages (BMDM) cells were plated in RPMI 1640 (10% FBS) and incubated overnight. […]
1×10^6 cells of the M2C macrophages induced by baicalin were analyzed by flow cytometry to confirm whether the M2C macrophages express MERTK. Fluorescence-labelled anti-mouse antibodies (Biolegend, the U.S.A.), FITC-anti-CD 11b and PE-anti-MERTK, are used in the analysis. […] After removing supernatant, the sample was dissolved in 1 ml of PBS and analyzed by flow cytometry.

O=C(O)[C@H]1O[C@@H](Oc2cc3oc(-c4ccccc4)cc(=O)c3c(O)c2O)[C@H](O)[C@@H](O)[C@@H]1O [baicalin]
morphology of the macrophages [1]: basically round shape | average MERTK expression level on single cell (mean fluorescence intensity, MFI) [2]: significantly enhanced
